Our source for the pest or weed control values is US8895761B2, “4-phenylpyrane-3,5-diones, 4-phenylthiopyrane-3,5-diones and 2-phenylcyclohexane-1,3,5-triones as herbicides” (Syngenta Limited, priority 2007, dated 2014).

Each structure is given as a SMILES string.

Holding throughout (assay type): in vivo
Experiment [1] has as its system Alopecurus myosuroides (ALOMY). The experiment can be described thus: Post-emergence herbicidal glasshouse test, Alopecurus myosuroides. Particulars: Alopecurus myosuroides, 312 h, rate 250 g/ha, evaluated after 13 days, scale 100 = total damage to plant, 0 = no damage. A digest of the protocol: (§1)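 Seeds were sown in standard soil in pots and sprayed one day after sowing (pre-emergence) or after 8 days' growth (post-emergence). The spray was an aqueous solution from the active ingredient formulated in acetone/water (50:50) with 0.5% Tween 20. Plants grew at 24/16° C. day/night, 14 h light, 65% humidity, watered twice daily. Damage was scored after 13 days on a scale from 0 (no damage) to total damage.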

For experiment [2], the system named is Echinochloa crus-galli (ECHCG). The experiment can be described thus: Pre-emergence herbicidal glasshouse test, Echinochloa crus-galli. Particulars: Echinochloa crus-galli, 312 h, rate 250 g/ha, evaluated after 13 days, scale 100 = total damage to plant, 0 = no damage. A digest of the protocol:
as §1

Experiment [3] concerns Alopecurus myosuroides (ALOMY). The experiment can be described thus: Pre-emergence herbicidal glasshouse test, Alopecurus myosuroides. Conditions: Alopecurus myosuroides, 312 h, rate 250 g/ha, evaluated after 13 days, scale 100 = total damage to plant, 0 = no damage. An outline of the steps: as §1
For experiment [4], the system named is Setaria faberi (SETFA). In words: Post-emergence herbicidal glasshouse test, Setaria faberi. Particulars: Setaria faberi, 312 h, rate 250 g/ha, evaluated after 13 days, scale 100 = total damage to plant, 0 = no damage. Here is the method:
(§2) Seeds of a variety of test species were sown in standard soil in pots. After cultivation for one day (pre-emergence) or after 8 days cultivation (post-emergence) under controlled conditions in a glasshouse (at 24/16° C., day/night; 14 hours light; 65% humidity), the plants were sprayed with an aqueous spray solution derived from the formulation of the technical active ingredient in acetone/water (50:50) solution containing 0.5% Tween 20 (polyoxyethelyene sorbitan monolaurate, CAS RN 9005-64-5). The test plants were then grown in a glasshouse under controlled conditions in a glasshouse (at 24/16° C., day/night; 14 hours light; 65% humidity) and watered twice daily. After 13 days for pre and post-emergence, the test was evaluated ([…] to plant; 0=no damage to plant).
(§3) Setaria faberi (SETFA), Lolium perenne (LOLPE), Alopecurus myosuroides (ALOMY), Echinochloa crus-galli (ECHCG) and Avena fatua (AVEFA).

The test system of experiment [5] is Setaria faberi (SETFA). The experiment can be described thus: Pre-emergence herbicidal glasshouse test, Setaria faberi. Particulars: Setaria faberi, 312 h, rate 250 g/ha, evaluated after 13 days, scale 100 = total damage to plant, 0 = no damage. The procedure:
as §2, §3

Experiment [6] deals with Echinochloa crus-galli (ECHCG). In words: Post-emergence herbicidal glasshouse test, Echinochloa crus-galli. Particulars: Echinochloa crus-galli, 312 h, rate 250 g/ha, evaluated after 13 days, scale 100 = total damage to plant, 0 = no damage. A digest of the protocol: as §1
Experiment [7] concerns Avena fatua (AVEFA). In words: Pre-emergence herbicidal glasshouse test, Avena fatua. Conditions: Avena fatua, 312 h, rate 250 g/ha, evaluated after 13 days, scale 100 = total damage to plant, 0 = no damage. An outline of the steps:
as §1

Experiment [8] has as its system Avena fatua (AVEFA). The experiment can be described thus: Post-emergence herbicidal glasshouse test, Avena fatua. Particulars: Avena fatua, 312 h, rate 250 g/ha, evaluated after 13 days, scale 100 = total damage to plant, 0 = no damage. A digest of the protocol: as §1

For `CCc1cc(-c2cc(Cl)cc(Cl)c2)ccc1C1=C(O)[C@@]2(C)CC[C@H](O2)C1=O` [Compound A-15], the pest or weed control at 250 g/ha in experiment [1] was 100%; in experiment [2], 30%; in experiment [3], 0%; in experiment [4] it was 100%; in experiment [5] it was 40%; in experiment [6], 100%. In addition, the figures for the pest or weed control at 250 g/ha in experiment [7] and in experiment [8] were 40% and 80%, respectively.

For `CCc1cc(-c2ccc(Cl)cc2C)ccc1C1=C(O)[C@@]2(C)CC[C@H](O2)C1=O` [Compound A-16], the pest or weed control at 250 g/ha in experiment [1] was found to be 90%; in experiment [2] it was 0%; in experiment [3], 0%; in experiment [4] it was 80%; in experiment [5], 50%; in experiment [6], 20%. Besides, the pest or weed control at 250 g/ha in experiment [7] and in experiment [8] was 0% each time.

Turning to `CCc1cc(-c2ccc(Cl)c(Cl)c2)ccc1C1=C(O)[C@@]2(C)CC[C@H](O2)C1=O` [Compound A-17], the pest or weed control at 250 g/ha in experiment [1] was 100%; in experiment [2], 100%; in experiment [3], 30%; in experiment [4], 100%; in experiment [5], 100%; in experiment [6], 100%. Further, the values for the pest or weed control at 250 g/ha in experiment [7] and in experiment [8] were 80% and 100%, respectively.

For the molecule `CCc1cc(-c2ccc(F)cc2)ccc1C1=C(O)[C@@]2(C)CC[C@H](O2)C1=O` [Compound A-18], the pest or weed control at 250 g/ha in experiment [1] is 100%; in experiment [2] it was 100%; in experiment [3], 90%; in experiment [4], 100%; in experiment [5] it was 100%; in experiment [6], 100%. For the same molecule, the pest or weed control at 250 g/ha in experiment [7] turned out to be 70%; in experiment [8] it was 90%.

For the molecule `CCc1cc(-c2ccc(Cl)c(C)c2)ccc1C1=C(O)[C@@]2(C)CC[C@H](O2)C1=O` [Compound A-19], the pest or weed control at 250 g/ha in experiment [1] worked out at 90%; in experiment [2] it was 80%; in experiment [3] it was 0%; in experiment [4], 80%; in experiment [5], 0%; in experiment [6], 90%. Besides, the pest or weed control at 250 g/ha in experiment [7] was 30%; in experiment [8], 60%.

For `CCc1cc(-c2ccc(Cl)c(OC)c2)ccc1C1=C(O)[C@@]2(C)CC[C@H](O2)C1=O` [Compound A-20], the pest or weed control at 250 g/ha in experiment [1] worked out at 90%; in experiment [2], 70%; in experiment [3], 70%; in experiment [4] it was 90%; in experiment [5], 80%; in experiment [6], 100%. The values for the pest or weed control at 250 g/ha in experiment [7] and in experiment [8] were 40% and 70%, respectively.

`CCc1cc(-c2ccc(Cl)c(C(F)(F)F)c2)ccc1C1=C(O)[C@@]2(C)CC[C@H](O2)C1=O` [Compound A-22]: the pest or weed control at 250 g/ha in experiment [1] turned out to be 100%; in experiment [2] it was 40%; in experiment [3], 0%; in experiment [4] it was 100%; in experiment [5] it was 50%; in experiment [6], 90%. For the same molecule, the pest or weed control at 250 g/ha in experiment [7] came to 50%; in experiment [8], 70%.

In the case of `CCc1cc(-c2ccc(Cl)s2)ccc1C1=C(O)[C@@]2(C)CC[C@H](O2)C1=O` [Compound A-23], the pest or weed control at 250 g/ha in experiment [1] was 90%; in experiment [2], 50%; in experiment [3] it was 60%; in experiment [4], 80%; in experiment [5], 60%; in experiment [6], 100%. In addition, the pest or weed control at 250 g/ha came to 40% in experiment [7] and 30% in experiment [8].

Regarding `CCc1cc(-c2ccc(Cl)nc2)ccc1C1=C(O)[C@@]2(C)CC[C@H](O2)C1=O` [Compound A-25], the pest or weed control at 250 g/ha in experiment [1] is 90%; in experiment [2] it was 50%; in experiment [3] it was 30%; in experiment [4], 100%; in experiment [5], 90%; in experiment [6], 100%. Further, the pest or weed control at 250 g/ha worked out at 20% in experiment [7] and 60% in experiment [8].

Take `CCOC[C@]12CC[C@H](O1)C(=O)C(c1ccc(-c3ccc(Cl)cc3)cc1CC)=C2O` [Compound A-33]: the pest or weed control at 250 g/ha in experiment [1] was 90%; in experiment [2], 60%; in experiment [3], 20%; in experiment [4], 100%; in experiment [5] it was 30%; in experiment [6], 100%. Besides, the results for the pest or weed control at 250 g/ha in experiment [7] and in experiment [8] were 40% and 80%, respectively.
